# Structures can show the parent of a compound that is named as a salt.
# Assays:
# [1] = test system: P(40), P(80), S(80) cell fractions of Methylosinus sp. (CRL-15, NRRL B-11,202); experiment: Oxidation of n-alkanes and n-alkenes by cell fractions; type: biochemical; conditions: for % Inhibition, Propylene-Epoxidizing Activity / % Inhibition, Methane-Hydroxylating Activity / Methane-Oxidizing Activity in presence of metal / Propylene-Oxidizing Activity in presence of metal: P(40) fraction; for % Inhibition, Propylene-Epoxidizing Activity / % Inhibition, Methane-Hydroxylating Activity: inhibitor 10^-3 M; for % Inhibition, Propylene-Epoxidizing Activity: uninhibited rate 4.1; for % Inhibition, Methane-Hydroxylating Activity: uninhibited rate 4.5; for Rate of Product Formation (substrate to 1,2-epoxide or alcohol): P(40) particulate fraction, 30° C.; for Methane-Oxidizing Activity in presence of metal / Propylene-Oxidizing Activity in presence of metal: metal 10^-3 M; for Methane-Oxidizing Activity in presence of metal: control 4.0; for Propylene-Oxidizing Activity in presence of metal: control […]
# Experimental: Cells were washed twice with 25 mM potassium phosphate buffer, pH 7.0 containing 5 mM MgCl2. Cells were suspended in the same buffer. The cell suspensions at 4° C. were disintegrated by a single passage through a French Pressure cell (15,000 lb./in.^2) and centrifuged at 5000×g. for 15 min. to remove unbroken bacteria. The supernatant solution (crude extract) was then centrifuged at 40,000×g. for 30 min., yielding particulate P(40) and soluble S(40) fractions. The S(40) fraction was subsequently centrifuged at 80,000×g. for 60 min., yielding particulate P(80) and soluble S(80) fractions. The particulate fractions [P(40) and P(80)] were suspended in 25 mM potassium phosphate buffer, pH 7.0, containing 5 mM MgCl2 and homogenized at 4° C.
# […] The reaction mixtures contained in 1.0 ml: 150 mM potassium phosphate buffer, pH 7.0 containing 5 mM MgCl2, 0.6 ml; […] NADH, and cellular fraction.
# Reaction mixtures were contained in 10 ml vials at 4° C. Vials were sealed with rubber caps. The gaseous phase in the vials was removed using vacuum and then was replaced with a gas mixture of methane or propylene and oxygen at a 1:1, v/v ratio. Oxidation of other gaseous n-alkanes and n-alkenes was examined as described above. For liquid substrates, 10 μl of substrate was used directly.
# The products of epoxidation of n-alkenes and hydroxylation of n-alkanes were assayed by flame ionization gas chromatography using a stainless steel column (12'×1/8") packed with 10% Carbowax 20 M on 80/100 Chromosorb W and Porapak Q column. The column temperature was maintained isothermally at 120° C. The carrier gas flow rate was 30 ml/min. of helium. The various products were identified by retention time comparisons and co-chromatography with authentic standards.
# Specific activities were expressed as μ moles of products formed per hour per mg. protein. Concentrations of protein in various fractions were determined by the method of Lowry et al., J. Biol. Chem. 193: 265-275 (1951).
# [2] = test system: Methylococcus capsulatus (CRL M1, NRRL B-11,219); experiment: Oxidation/epoxidation by washed cell suspensions; type: cell-based; conditions: methane-grown washed cells
# [3] = test system: whole cell suspensions of methylotrophs (C1 -utilizing microbes); conditions: 2-butanol added; biocatalyst from C1 -C4 gaseous alkane-grown microbes
# [4] = test system: Methylococcus capsulatus strain MC; experiment: Stimulation of propylene epoxidation in cell suspensions; type: cell-based; conditions: Propylene + 5 mM stimulator compound
# Experimental: (§1) The pH of the nutrient medium was adjusted to 7.0 by the addition of acid or base and 50 ml aliquots of the nutrient medium was charged into a plurality of 300 ml shake flasks. The shake flasks were inoculated with an inoculating loop of cells from an agar plate containing homogeneous colonies of the microorganisms on the plate (the purity of the isolates were confirmed by microscopic examination). The isolates had been maintained on agar plates under an atmosphere of methane and air having a 1:1 v/v gas ratio which had been transferred every two weeks. The gaseous phase of the inoculated flasks was then replaced with a gas mixture comprised of methane and air having a ratio of 1:1 on a v/v basis. The inoculated flasks were sealed air tight and were incubated on a rotary shaker of orbital radius 2.5 cm at 250 rpm and at 30° C. for two days until the turbidity in the medium had developed.
# (§2) The cells were harvested by centrifugation at 10,000 ×g at 4° C. for 30 minutes. The cell pellet was washed twice with a 0.15 M phosphate buffer at a pH of 7.0 (containing 0.002 M MgCl2). The washed cells were then suspended in a 0.15 M phosphate buffer at pH 7.0.
# (§3) A 0.5 ml aliquot of each washed cell suspension (2 mg cells) was put into 10 ml vials at 4° C. which were sealed with a rubber cap. The gaseous phase of the vials was removed with vacuum and then was replaced with a gas mixture of alkene and oxygen at a 1:1 v/v ratio. It was then incubated at 30° C. on a rotary shaker at 300 rpm. Samples of product (3 μl) were withdrawn periodically with a microsyringe and the products were analyzed by gas chromatography (ionization flame detector column).
# (§4) Several experiments were carried out using a plurality of compounds capable of generating the necessary reducing power (NADH2 or NADPH2) required for the epoxidation of alkenes or dienes. These experiments were carried out using cell suspensions of methane grown methylotrophs using the procedure as described in Example 1 except that a stimulator compound was added to the reaction medium.
# [5] = test system: Methylobacter capsulatus Y (NRRL B-11,201); experiment: Methane hydroxylation and propylene epoxidation by washed cell suspensions; type: cell-based; conditions: Propylene + 5 mM stimulator compound
# Experimental: as §1, §2
# as §3, with “The gaseous phase of the vials was removed with vacuum and then was replaced with a gas mixture of alkene and oxygen at a 1:1 v/v ratio.” left out
# Several experiments were carried out using a plurality of compounds capable of generating the necessary reducing power (NADH2 or NADPH2) required for the epoxidation of alkenes or dienes. […]
# [6] = test system: Methylobacterium organophilum (CRL 26, NRRL B-11,222); experiment: Epoxidation/hydroxylation by washed cell suspensions; type: cell-based; conditions: Propylene + 5 mM stimulator compound
# Experimental: as §1, §2, §3, §4
# [7] = test system: Methylosinus sporium 5 (NRRL B-11,197); experiment: Methane hydroxylation and alkene epoxidation by washed cell suspensions; type: cell-based; conditions: methane-grown washed cells, 30° C.
# Experimental: as §1, with “The shake flasks were inoculated with an inoculating loop of cells from an agar plate containing homogeneous colonies of the microorganisms on the plate (the purity of the isolates were confirmed by microscopic examination).” left out
# as §2
# as §3, with “The gaseous phase of the vials was removed with vacuum and then was replaced with a gas mixture of alkene and oxygen at a 1:1 v/v ratio.” left out
# [8] = test system: Methylosinus trichosporium OB3b (NRRL B-11,196); experiment: as above; type: cell-based; conditions: methane-grown washed cells, 30° C.
# Experimental: as §1, with “The shake flasks were inoculated with an inoculating loop of cells from an agar plate containing homogeneous colonies of the microorganisms on the plate (the purity of the isolates were confirmed by microscopic examination).” left out
# as §2
# as §3, with “A 0.5 ml aliquot of each washed cell suspension (2 mg cells) was put into 10 ml vials at 4° C. which were sealed with a rubber cap.” left out
# [9] = test system: Methylomonas albus BG8 (NRRL B-11,200); experiment: as above; type: cell-based; conditions: methane-grown washed cells; 0.2 g/100 ml dry weight of cells
# Experimental: as §1, with “The shake flasks were inoculated with an inoculating loop of cells from an agar plate containing homogeneous colonies of the microorganisms on the plate (the purity of the isolates were confirmed by microscopic examination).” left out
# as §2, §3
# [10] = test system: Methylocystis parvus OBBP (NRRL B-11,198); experiment: as above; type: cell-based; conditions: methane-grown washed cells; 0.2 g/100 ml dry weight of cells
# Experimental: (§5) The pH of the nutrient medium was adjusted to 7.0 by the addition of acid or base and 50 ml aliquots of the nutrient medium was charged into a plurality of 300 ml shake flasks. […] The isolates had been maintained on agar plates under an atmosphere of methane and air having a 1:1 v/v gas ratio which had been transferred every two weeks. […] The inoculated flasks were sealed air tight and were incubated on a rotary shaker of orbital radius 2.5 cm at 250 rpm and at 30° C. for two days until the turbidity in the medium had developed.
# as §2, §3
# [11] = test system: Methylomonas methanica S1 (NRRL B-11,199); experiment: as above; type: cell-based; conditions: methane-grown washed cells; 0.2 g/100 ml dry weight of cells
# Experimental: as §5, §2, §3
compound,measurement,setting,value
"c1cnc2c(c1)ccc1cccnc12 [1,10-phenanthroline, reference compound]","% Inhibition, Propylene-Epoxidizing Activity",[1],93%
same,"% Inhibition, Methane-Hydroxylating Activity",[1],90%
"CC(C)(C)C [2,2-dimethylpropane]","Reaction Rate, 2,2-dimethylpropane to 2,2-dimethylpropanol",[2],0.085 μmoles/hr/mg biomass
CCC(C)O (centres unmarked) [2-Butanol],Effect on epoxidation of gaseous n-alkenes,[3],somehow inhibited
same,Rate of Product Formation (Propylene Oxide),[4],21 nmoles/hr/mg protein
same,Rate of Product Formation (Propylene Oxide),[5],26 nmoles/hr/mg protein
"Oc1cccc2cccnc12 [8-Hydroxyquinoline, reference compound]","% Inhibition, Propylene-Epoxidizing Activity",[1],75%
same,"% Inhibition, Methane-Hydroxylating Activity",[1],80%
CC=O [Acetaldehyde],Rate of Product Formation (Propylene Oxide),[6],13 nmoles/hr/mg protein
same,Rate of Product Formation (Propylene Oxide),[4],154 nmoles/hr/mg protein
C=CC=C [Butadiene],"Rate of Product Formation (substrate to 1,2-epoxide or alcohol)",[1],0.63 μmoles/hr/mg of protein
same,"Conversion rate, butadiene to 1,2-epoxybutene",[7],1.5 μmole/hr/mg protein
same,"Conversion rate, butadiene to 1,2-epoxybutene",[8],2.6 μmole/hr/mg protein
C=CCC [Butene-1],"Rate of Product Formation (substrate to 1,2-epoxide or alcohol)",[1],2.18 μmoles/hr/mg of protein
same,"Conversion rate, butene-1 to 1,2-epoxybutane",[7],0.8 μmole/hr/mg protein
same,"Conversion rate, butene-1 to 1,2-epoxybutane",[8],0.45 μmole/hr/mg protein
O=S(=O)([O-])[O-].[Cu+2] [Cupric Sulfate],Methane-Oxidizing Activity in presence of metal,[1],7.1 μmoles/hr/mg protein
same,Propylene-Oxidizing Activity in presence of metal,[1],9.0 μmoles/hr/mg protein
[Cl][Cu] [Cuprous Chloride],Methane-Oxidizing Activity in presence of metal,[1],7.2 μmoles/hr/mg protein
same,Propylene-Oxidizing Activity in presence of metal,[1],9.2 μmoles/hr/mg protein
COC [Dimethylether],Rate of Product Formation (Propylene Oxide),[6],50 nmoles/hr/mg protein
CC [Ethane],"Rate of Product Formation (substrate to 1,2-epoxide or alcohol)",[1],3.2 μmoles/hr/mg of protein
CCO [Ethanol],Rate of Product Formation (Propylene Oxide),[6],124 nmoles/hr/mg protein
same,Rate of Product Formation (Propylene Oxide),[4],462 nmoles/hr/mg protein
same,Rate of Product Formation (Propylene Oxide),[5],370 nmoles/hr/mg protein
C=C [Ethylene],"Rate of Product Formation (substrate to 1,2-epoxide or alcohol)",[1],1.27 μmoles/hr/mg of protein
same,"Conversion rate, ethylene to ethylene oxide",[7],1.1 μmole/hr/mg protein
same,"Conversion rate, ethylene to ethylene oxide",[8],1.9 μmole/hr/mg protein
same,"Conversion rate, ethylene to ethylene oxide",[9],1.2 μmole/hr/mg protein
same,"Conversion rate, ethylene to ethylene oxide",[10],0.9 μmole/hr/mg protein
same,"Conversion rate, ethylene to ethylene oxide",[11],0.95 μmole/hr/mg protein
[Cl][Fe]([Cl])[Cl] [Ferric Chloride],Methane-Oxidizing Activity in presence of metal,[1],4.8 μmoles/hr/mg protein
same,Propylene-Oxidizing Activity in presence of metal,[1],5.8 μmoles/hr/mg protein
C=CCCCC [Hexene-1],"Conversion rate, hexene-1 to 1,2-epoxyhexane",[7],0 μmole/hr/mg protein
same,"Conversion rate, hexene-1 to 1,2-epoxyhexane",[7]; listed as hexene-1,did not produce any detectable epoxide
same,"Conversion rate, hexene-1 to 1,2-epoxyhexane",[8],0 μmole/hr/mg protein
same,"Conversion rate, hexene-1 to 1,2-epoxyhexane",[8]; listed as hexene-1,did not produce any detectable epoxide
CC(C)C [Isobutane],"Reaction Rate, isobutane to isobutyraldehyde",[2],0.072 μmoles/hr/mg biomass
same,"Reaction Rate, isobutane to tertiary butanol",[2],0.051 μmoles/hr/mg biomass
C=CC(=C)C [Isoprene],"Reaction Rate, isoprene to 1,2-epoxyisoprene",[2],0.064 μmoles/hr/mg biomass
CC(C)O [Isopropanol],Rate of Product Formation (Propylene Oxide),[6],20 nmoles/hr/mg protein
same,Rate of Product Formation (Propylene Oxide),[4],37 nmoles/hr/mg protein
same,Rate of Product Formation (Propylene Oxide),[5],13 nmoles/hr/mg protein
COC(C)=O [Methyl Acetate],Rate of Product Formation (Propylene Oxide),[6],5.0 nmoles/hr/mg protein
same,Rate of Product Formation (Propylene Oxide),[4],21 nmoles/hr/mg protein
COC=O [Methyl Formate],Rate of Product Formation (Propylene Oxide),[6],61 nmoles/hr/mg protein
same,Rate of Product Formation (Propylene Oxide),[4],390 nmoles/hr/mg protein
same,Rate of Product Formation (Propylene Oxide),[5],99 nmoles/hr/mg protein
"C=CCCC [Pentane-1, pentene-1]","Rate of Product Formation (substrate to 1,2-epoxide or alcohol)",[1],0 μmoles/hr/mg of protein
same,"Conversion rate, Pentane-1 to 1,2-epoxypentane",[7],0 μmole/hr/mg protein
same,"Conversion rate, pentene-1 to 1,2-epoxypentane",[7],did not produce any detectable epoxide
same,"Conversion rate, Pentane-1 to 1,2-epoxypentane",[8],0 μmole/hr/mg protein
same,"Conversion rate, pentene-1 to 1,2-epoxypentane",[8],did not produce any detectable epoxide
CCCO [Propanol],Rate of Product Formation (Propylene Oxide),[6],66 nmoles/hr/mg protein
same,Rate of Product Formation (Propylene Oxide),[4],243 nmoles/hr/mg protein
CCC=O [Propionaldehyde],Rate of Product Formation (Propylene Oxide),[4],40 nmoles/hr/mg protein
same,Rate of Product Formation (Propylene Oxide),[5],54 nmoles/hr/mg protein
"NNC(N)=S [Thiosemicarbazide, reference compound]","% Inhibition, Propylene-Epoxidizing Activity",[1],97%
same,"% Inhibition, Methane-Hydroxylating Activity",[1],100%
"NC(N)=S [Thiourea, reference compound]","% Inhibition, Propylene-Epoxidizing Activity",[1],98%
same,"% Inhibition, Methane-Hydroxylating Activity",[1],98%
"c1ccc(-c2ccccn2)nc1 [α,α-Bipyridyl, reference compound]","% Inhibition, Propylene-Epoxidizing Activity",[1],98%
same,"% Inhibition, Methane-Hydroxylating Activity",[1],99%
Ferrous Sulfate,Methane-Oxidizing Activity in presence of metal,[1],4.8 μmoles/hr/mg protein
same,Propylene-Oxidizing Activity in presence of metal,[1],5.9 μmoles/hr/mg protein

# Reference: patent publication US4368267A, “Epoxidation of lower α-olefins” (priority 1980, dated 1983)
